row,Compound,melting point [°C]
1,CCOC(=O)CNc1ncccc1NC(=O)c1ccc(F)cc1,127 to 128
2,C=C[C@]1(C)CCc2c(C)c(OCc3ccccc3)c(C)c(C)c2O1,63 to 66
3,CCCCC(CC)C(=O)NC(=S)Nc1nc(-c2ccc3c(c2)CCCC3)cs1 (centres undefined),178 to 179
4,CCOC(=O)c1c(C)nc2c(c1N)c1c(n2Cc2ccc(OC)cc2)CCCC1,108 to 110
5,Cc1csc2nc(S(=O)(=O)Nc3ccccc3Cl)nn12,172 to 174
6,Nc1n[nH]c2nc3cc(O)ccc3cc12,> 300
7,COc1ccc(Cn2c(=O)c(C#N)c(Cl)c3cc(F)cnc32)cc1,195
8,CC(=O)Nc1cccc(-c2ccnc3c(Cc4ccccc4)cnn23)c1,205 to 207
9,COc1cc2ncnc(N3CCc4ccc(Cl)cc43)c2cc1SC,210
10,COc1cc2c(cc1Br)CC(C)N(C(=O)C1CC1)N=C2c1ccc([N+](=O)[O-])cc1 (centres undefined),194 to 196
11,CN(C(=O)c1ccc2nonc2c1)[C@H]1CC[C@H](n2ncnn2)CC1,172 to 175
12,CNC(=O)CN1CCc2cc(Nc3ncc(Cl)c(N[C@H]4[C@@H](C(N)=O)[C@@H]5C=C[C@H]4C5)n3)c(OC)cc2CC1,135 to 145
13,CCC(C)(C)C(=O)NNc1cc(NC(=O)CC(C)(C)C)cc(NC(=O)CC(C)(C)C)c1,332 to 334
14,CC(=O)OCC(=O)C1C(C)CC2C3CC(Cl)C4=CC(=O)CCC4(C)C3C(O)CC21C (centres undefined),209
15,O=C1CCC(c2ccc(CCCCN3CCN(c4ccc(F)cc4)CC3)cc2)N1 (centres undefined),136 to 137
16,CN(C)CCNC(=O)c1c2ccccc2nc2c1[nH]c1ccccc12,175 to 176
17,CC12C=CC(O)CC1=CCC1C2CCC2(C)C(=O)CCC12 (centres undefined),138 to 140
18,COCCc1nc2c(N)nc3c(c2n1CCCNC(=O)c1ccccc1)CCCC3,168 to 170
19,CCN1CCCCC1CNS(=O)(=O)c1ccc(Nc2ccnc3cc(Cl)ccc23)cc1 (centres undefined),203 to 205
20,NS(=O)(=O)c1ccc2c(c1)S(=O)(=O)NC1CCCN21 (centres undefined),260 to 262
21,CC(=O)NCc1ccc(CN2CCN(c3ncc(Br)s3)CC2)cc1,160 to 163
22,NC(=O)c1ccc(NC2CCCN(Cc3ccccc3)C2)cc1 (centres undefined),158 to 160
23,COC(=O)CCn1cc(Cc2cccnc2)c2c(CCC(=O)OC(C)(C)C)cccc21,80 to 82
24,Cc1cc([N+](=O)[O-])c(O)c([N+](=O)[O-])c1C,120 to 122
25,COC(=O)CCCCNC(=NC(=O)OCc1ccccc1)NC(=O)OCc1ccccc1,36 to 39

row,Compound,melting point [°C]
1,COc1ccc2[nH]c(-c3n[nH]c4ccsc34)cc2n1,234 to 236
2,OCC1C(O)C(O)C(O)CN1C=CCc1cccc(OCCOc2cccc(CC=CN3CC(O)C(O)C(O)C3CO)c2)c1 (centres undefined),210 to 213
3,Cc1cccc(-c2nc(Nc3ccc(Cl)cc3)c3ccccc3n2)n1,256 to 259
4,COC(=O)c1cccc2c(Br)c(OC)ccc12,119
5,CC1=C(C)C(=O)C(CC[C@](C)(O)CO)=C(C)C1=O,109 to 112
6,CCN(Cc1ccccc1)c1nc(=O)c2cc(C(F)(F)F)cc([N+](=O)[O-])c2s1,94 to 97
7,CC(C)(C)C(=O)Oc1ccccc1-c1nnn[nH]1,82 to 85
8,c1ccc(Cc2c[nH]c(-c3ncc[nH]3)n2)cc1,138 to 140
9,CC(C)(C(N)=O)/C(F)=C(/F)c1ccc(Cl)cc1,99
10,CCCCC1N=C(Cl)/C(=C2\C(=O)Nc3ccccc32)N1Cc1ccc(C(=O)O)cc1 (centres undefined),241 to 242
11,CCNC(=O)Oc1ccc(-c2nn(C3CCCC3)c3c(F)cccc23)cc1,159 to 160
12,OC(c1ccccc1)(c1ccc(Cl)cc1)c1ncc[nH]1 (centres undefined),163 to 165
13,Cc1cc(S(=O)(=O)Nc2cccc(Br)c2)c2c(C)ccc(C(C)C)cc1-2,172 to 174
14,CCOc1cc(C2=NN(Cc3ccc(N)cc3)C(=O)CC2)ccc1OC,120
15,CCCOc1nc2cc(Cn3ccnc3)ccc2nc1C,85.5
16,O=C(O)c1ccccc1-c1nnc(-c2ccccc2)s1,178 to 180
17,COC(=O)c1ccc(CO)cc1N,100 to 102
18,CSc1ccc(C(=O)c2cc(-c3cccnc3)c(N3CCOCC3)s2)cc1,127
19,COc1cccc2c(C3CCN(C(=O)OC(C)(C)C)CC3)noc12,130 to 132
20,CCOC(=O)c1cc(Cl)cnc1N,120 to 122
21,CCCn1cc2c(C3C(=O)Nc4ccc(S(=O)(=O)N(C)C)cc43)nc(NCCN(C)C)nc2n1 (centres undefined),259 to 263
22,O=C(O)c1ccc(Cn2cc(C3c4ccc(C(F)(F)F)cc4C=Cc4cc(C(F)(F)F)ccc43)c(=O)[nH]c2=O)o1,203 to 206
23,O=C(O)/C=C/C=C(c1ccc(F)cc1)c1ccc(F)cc1,186 to 188
24,Oc1ccc2c(c1)Oc1cc(O)ccc1C2(C(F)(F)F)C(F)(F)F,209 to 210
25,O=C1CCC(N2Cc3c(OCc4cc(CN5CCOCC5)co4)cccc3C2=O)C(=O)N1 (centres undefined),168 to 170

row,Compound,melting point [°C]
1,O=C=Nc1ccc2c(c1)C(=O)OC2=O,80 to 82
2,CN(CCO)S(=O)(=O)c1cc([N+](=O)[O-])c(Cl)s1,62
3,CCCCCCCCCCCOc1ccc(-c2ccc(OCC(C)OC(=O)CC(C)C)cc2)cc1 (centres undefined),65.4 to 66.5
4,COC(=O)/C=C/c1ccc(/C=C/c2ccncc2)nc1,> 143
5,Cc1ccc(S(=O)(=O)NN=C2CCCC(=O)C2Cc2ccccc2)cc1 (centres undefined),172 to 173
6,O=[N+]([O-])c1ccc(-c2ccc([N+](=O)[O-])cc2C(F)(F)F)c(C(F)(F)F)c1,140
7,Clc1ccc(-c2csc(NCc3cnc(NCc4ccccc4)s3)n2)cc1,105 to 106
8,Cc1nc2c(N)nc3ccccc3c2n1CCOCCNC(=O)NC1CCCCC1,207 to 209
9,CCCCNc1nc2cnnc(Cl)c2cc1C(=O)OCC,127
10,CC(=O)NCCCNc1ccc(NCCN(C)C)c2c1C(=O)c1ccccc1C2=O,193 to 194
11,C=C(OCC)c1cc(C(=O)OC)c(NC(C)=O)cc1C(F)(F)F,65 to 73
12,CC(O)=C(C#N)C(=O)Nc1ccc(C(C)(C)C)cc1,134 to 135
13,O=C(O)C=Cc1ccc(NC(=O)CCCCCNC(=O)OCc2ccccc2)cc1,142 to 144
14,O=C(O)CCc1ccc(OCC2CCN(c3ccncc3)CC2)cc1,303 to 307
15,Cc1cc(CCCCCCCOc2ccc(C3=NCCO3)cc2)on1,89 to 90
16,COC1=CC(=O)C(Cc2ncn(C(c3ccccc3)(c3ccccc3)c3ccccc3)c2C)CC1 (centres undefined),145 to 148
17,COc1cc(Nc2nccc(Nc3cccc(OC(F)(F)F)c3)n2)cc(OC)c1OC,154 to 156
18,CC(=O)NCCCCCNc1ccc(NCCN(C)C)c2c1C(=O)c1ccccc1C2=O,138 to 139
19,O=C(NCC12CC3CC(CC(C3)C1)C2)c1cccc(F)c1Cl,149 to 151
20,COCc1cnc2c(NC(=O)c3c(Cl)cccc3Cl)cccc2c1Cl,177
21,CCN1CN(C)CN(c2cc(Cl)ccc2C)C1=S,129 to 131
22,Cc1c(C(=O)O)ccc(Cl)c1Cl,174 to 175
23,CN(C)Cc1ccccc1-c1ccc(C(=O)N2Cc3ccc(C(=O)NCc4cccnc4)n3Cc3ccccc32)cc1,95 to 104
24,CC(=O)N[C@@H](CSC(=O)C(C)C)C(=O)OC(C)C,59 to 59.5
25,CC1(C)CN(c2ncc(C(=O)N(c3cccc(C(F)(F)F)c3)C3CCCC3)c(N)n2)C(=O)N1,135 to 139

row,Compound,melting point [°C]
1,CCCCc1nc2c(c(=O)[nH]1)CN(C(C)=O)CC2,106 to 113
2,O=C1CSc2ccc3ccccc3c2N1,195 to 196
3,CCCCc1nc2c(c(C)c(C)n3nnnc23)n1CC(C)(C)N,144 to 147
4,C=CC(=O)OCCOc1ccc(Cl)c2c1Sc1ccccc1C2,90 to 91
5,COc1ccc(Oc2c(C)cc(CC#N)cc2C)cc1C(C)C,56 to 58
6,O=C(Cc1ccccc1)Nc1ccc(CN2C(=O)[C@H]3CCC[C@H]3N(C(=O)CN3C(=O)c4ccccc4C3=O)c3ccccc32)cc1 (relative stereo),143 to 145
7,CCOCc1nc2c(N)nc3cccnc3c2n1CC1(O)CCC1,162 to 163
8,COc1cccc(-c2n[nH]c(-c3ccccc3C)n2)c1,100 to 102
9,CC(C)(C)c1ccccc1-n1cnnc1C(F)(F)F,120
10,CC(=O)Nc1ccc(SC2SCC(OC(C)=O)C(OC(C)=O)C2OC(C)=O)cc1 (centres undefined),168 to 174
11,O=C(Nc1ccc(N2CCN(C(=O)C(O)c3ccc(O)cc3Cl)CC2)nc1)Nc1ccccc1F (centres undefined),133 to 135
12,CNCc1ccc(C2CCN(c3c(F)c(N)c4c(=O)c(C(=O)O)cn(C5CC5)c4c3F)C2)cc1 (centres undefined),201 to 205
13,C[Si](C)(C)c1cccc(C[C@@H]2N[C@@H](c3ccccc3)[C@@H](c3ccccc3)OC2=O)c1,94 to 95
14,C=CC(=O)Nc1cccc2cccnc12,76.5 to 78.5
15,O=C(O)C(=O)c1ccc(OCCOCCOc2ccccc2)cc1,58 to 59
16,CN(C)C(=O)CN1CCC(c2ccc(Nc3nc4c(-c5cnn(-c6ccc(F)cc6)c5)cccn4n3)cc2)CC1,131 to 133
17,COc1cc(C)c(C(=O)c2c(Cl)cccc2Cl)c(OC)c1OC,92
18,CCCCCCC1CCC(=O)N1c1ccc(Cl)c(NC2=NN(c3c(Cl)cc(Cl)cc3Cl)C(=O)C2)c1 (centres undefined),224 to 227
19,CSc1ccc(NC(=O)N2CC(c3ccc(C(F)(F)F)cn3)C(c3ccc(Cl)cc3)=N2)cc1 (centres undefined),225 to 226
20,CNS(=O)(=O)OCC(COc1ccccc1OC)OS(N)(=O)=O (centres undefined),110 to 113
21,CCCCCCOC(=O)COc1ccc(F)c(C(N)=O)c1F,108
22,Cn1cc(CC(=O)O)c(OCCCc2cn(-c3ccc(C(F)(F)F)cn3)nc2C2CCCCC2)n1,157 to 158
23,CCNc1c(C)c(C)c2c(c1C)CC(C)(CN1CCC(c3ccccc3)CC1)O2 (centres undefined),84 to 86
24,CC1(C)C=Cc2cc(C(=O)NCCO)ccc2O1,60 to 70
